# Measurements published in patent US9636374B2, “pH-sensitive polymer-drug conjugates for targeted delivery of therapeutics” (priority 2011, dated 2017).
# Entries after “also recorded” stand apart in the source; their conditions may differ.
# Tests used:
# [1] = H1-NMR analysis of pH-dependent dissociation of bortezomib-catechol conjugates; assay type: physicochemical; conditions: as the pH decreased from 7.4 to 5.5; 1 mM in deuterated phosphate buffer
# Method: First, the pH-dependent reversible binding between BTZ and catechol-containing polymers was characterized using H^1-NMR spectroscopy (FIG. 3A). At pH 5.5, mixing BTZ and catechol-containing dopamine (DA) gave a spectrum similar to that of the two individual compounds superimposed on each other, indicating the presence of un-complexed BTZ and DA.
# H^1-NMR analysis of pH-dependent dissociation of bortezomib-catechol conjugates. Bortezomib and dopamine hydrogen chloride were dissolved separately in d6-DMSO 0.2 M concentration. The two solutions were mixed to give a stock solution of DA-BTZ conjugate at 0.1 M in DMSO. A solution of 0.1 M monosodium phosphate in D2O was used to dilute the DA-BTZ stock to 1 mM, and pH of such solutions were adjusted with 4N NaOH in D2O to 5.5, 6.5, 7.4 and 8.5. These solutions were analyzed on AVANCE III 500 MHz (FIG. 6) and peak integrals in the range of 7.2 to 5.5 ppm were used for quantifying the degree of dissociation of DA-BTZ presented in FIG. 3B.
# [2] = system: MDA-MB-231, MCF-10A-H-RasV12 and MCF-10A-Vector cells; assay: Biotin-mediated cell uptake of PEG-FITC (fluorescence microscopy); assay type: cell-based, human; conditions: 15 minute-treatment; for cellular uptake: 1 μM, cancer and noncancerous cells
# [3] = 3-component inhibition fluorescence assay (ARS-bortezomib competition); assay type: physicochemical; conditions: from pH 7.4 to pH 5.5
# Method: 3-component inhibition fluorescence assay. The fluorescence assay for characterizing pH-sensitive binding between bortezomib and catechol was carried out using procedures modified from the aforementioned literature method. Briefly, a solution of 0.1 mM ARS was prepared in 0.1 M phosphate monosodium buffer (solution A). Bortezomib was dissolved in solution A to achieve final concentration of 1 mM (solution B). The pH of both solution A and solution B was adjusted to 5.5, 6.5 and 7.4 using a 4N NaOH aqueous solution. Solution B was titrated to solution A to make a series of solutions that contain constant concentration of ARS (0.1 mM) and varying concentration of bortezomib (0˜1 mM) at defined pH. After mixing the two solutions, the final solution stood for 5 minutes before fluorescence measurement at excitation 495 nm, emission 565 nm on SpectraMax M5 (Molecular Devices, Sunnyvale, Calif.). This procedure was used to probe the pH-dependence of ARS-BTZ binding (FIG. 6). The binding capacity of catechol for bortezomib was characterized based on the inhibition of catechol on ARS-bortezomib binding, resulting in a decrease in fluorescence intensity. […] Fluorescence intensity of each solution was measured to plot the binding inhibition curves in FIG. 7. […] Fmax refers to the fluorescence intensity of ARS-BTZ conjugate in solution C at a defined pH. […]
compound,measurement,setting,value
CC(C)CC(NC(=O)C(Cc1ccccc1)NC(=O)c1cnccn1)B1Oc2ccc(CCN)cc2O1 (centres unmarked) [BTZ-catechol conjugate],increase in dissociation of the BTZ-catechol conjugate,[1],50%
"O=C(O)CCCC[C@@H]1SC[C@@H]2NC(=O)N[C@@H]21 [biotin, reference compound]",inhibition of cellular uptake of biotin-PEG-FITC,[2]; free biotin in buffer,Dose-dependent inhibition
PEG-FITC,cellular uptake,[2],little; also recorded: minimal
PEG-catechol,decrease in binding affinity for BTZ,[3],about 60%
biotin-PEG-FITC,cellular uptake,[2],showed uptake; also recorded: rapidly taken up
